From patent publication US20050255071A1, “Preparation having improved therapeutic breadth comprising nucleotide synthesis inhibitors” (Aventis Pharma Deutschland GmbH, priority 1998, published 2005)
Where two headings read alike, the source gives them in different places.

How the values were obtained:
[1] = tested on: Adjuvant-Induced Arthritis; assay type: in vivo, rats
Experimental: Adjuvant-Induced Arthritis, Modification According to Perper (Proc. Soc. Exp. Biol. Med. 137, 506 (1971)).
(§1) The experimental animals used were male rats of a Lewis strain (Moellegard, Denmark) having a body weight of from 160 to 210 g. On the 1st day, the animals were injected subcutaneously, into the tail root, with complete Freund's adjuvant containing a Mycobacterium butyricum suspension in heavy paraffin oil (Difco, 6 mg/kg in paraffin oil, Merck). The compounds N-(4-trifluoromethylphenyl)-2-cyano-3-hydroxycrotonamide and colestyramine were suspended in carboxymethylcellulose (1% in water), and administered orally. The compounds were administered once daily from the 1st to the 17th day of the experiment; the paw volume and arthritis index were then determined on the 18th day.
The severity of the disorder was determined by measuring the paw volume of both hind paws. The measurement was carried out by means of the water displacement method using a 2060 Plethys monitor (Rhema-Labortechnik, Hofheim, Germany). The arthritis index was furthermore determined in the 18th day after injection.
Determination of the arthritis index was scored as follows:
On the first day, animals of an “arthritis control” control group were given a subcutaneous injection, into the tail root, with complete Freund's adjuvant but were given only the solvent (i.e., 1% cabrboxymethylcellulose in water). Six animals in each case were used per dose and in the control group. Untreated animals were employed as a further “healthy control” control group. The activity criteria used were the reduction of the increase in the paw volume and the decrease in the arthritis index, compared with the untreated control group, and the weight of the animals, in each case in percent and based on the arthritis control.
In the following table, N-(4-trifluoromethylphenyl)-2-cyano-3-hydroxycrotonamide is compound 1. Colestyramine was administered 4 hours later than compound 1.

[2] = GOT, GPT, RBC, HGB, HCT in adjuvant-arthritis rats (Example 2); details: rat, in vivo, po, 25 mg/kg
Experimental: as §1
The experimental conditions were analogous to Example 1. The actions of compound 1 and colestyramine on the amount of red blood corpuscles (RBC), hemoglobin content (HGB), hematocrit (HCT), amount of glutamate oxlacetate transaminase (GOT), and glutamate pyruvate transaminase (GPT) were determined. Colestyramine was administered 4 hours later than compound 1.

[3] = Blood level and duration of action of compound 1 after time-displaced colestyramine; assay type: in vivo; details: with time-displaced administration of colestyramine (2 hours or 4 hours after compound 1)
From the text: The preparation according to the invention can also include compositions or combination packs in which the constituents are placed next to one another and can therefore be used simultaneously, separately, or sequentially on one and the same human or animal body. The sequential administration of a compound of formula (I) and/or (II) before the administration of a compound, which essentially prevents the enterohepatic circulation of a compound of formula (I) and (II), is preferred. To this end, for example, N-(4-trifluoromethylphenyl)-2-cyano-3-hydroxycrotonamide (called compound 1 in the following) is administered first. Colestyramine, which essentially prevents the enterohepatic circulation of compound 1, is administered with a displacement in time, i.e., 2 hours or 4 hours after the administration of compound 1. Because of the time-displaced administration of compound 1 relative to colestyramine, compound 1 is initially absorbed unhindered from the digestive tract. After the administration of colestyramine, which is not absorbed systemically, compound 1 excreted via the bowel is bound to colestyramine, and cannot therefore be reabsorbed again; as a result, an interruption to the enterohepatic circulation is brought about.

[4] = Alkaline phosphatase and amylase in adjuvant-arthritis rats (Example 3); details: rat, in vivo, po, 25 mg/kg
Experimental: as §1
The experimental conditions were analogous to Example 1. The actions of compound 1 and colestyramine on the amount on the of alkaline phosphatase (AP) and amylase were determined. Colestyramine was administered 4 hours later than compound 1.

[5] = Example 1, 2.5 mg/kg of live weight oral once daily day 1-17, day 18
[6] = Example 1, 7.5 mg/kg of live weight oral once daily day 1-17, day 18
[7] = Example 1, 25 mg/kg of live weight oral once daily day 1-17, day 18
[8] = Example 2, 25 mg/kg of live weight oral
[9] = Example 3, 25 mg/kg of live weight oral

For `C/C(O)=C(\C#N)C(=O)Nc1ccc(C(F)(F)F)cc1` [Compound 1, N-(4-trifluoromethylphenyl)-2-cyano-3-hydroxycrotonamide], the “desired actions on the immune system” value ([1]; 25 mg/kg/day of compound 1, with administration of colestyramine) was “retention”, the Arthritis index [1, 5] was −77% and the “Paw Volume” value [1, 5] was −63%. For the same compound, the Arthritis index [1, 6] was −92%, the “Paw Volume” value [1, 6] was −83% and the Arthritis index [1, 7] was −100%. For the same compound, the “Paw Volume” value [1, 7] was −92%, the Arthritis index [1, 8] was −100% and the “Paw Volume” value [1, 8] was −92%. The “Arthritis index” value [1, 9] was −100%, the Paw Volume [1, 9] was −110% and the “activity in adjuvant arthritis” value ([1]; approximately 2.5 mg/kg/day of compound 1, with administration of colestyramine) was “not reduced”. For the same compound, the GOT [2] was 85.3 U/I, the GPT [2] was 25.1 U/I and the HCT [2] was 18.7%. For the same compound, the HGB [2] was 6.1 g/dL, the RBC [2] was 3.8 *10^6/mm^3 and the “blood level of compound 1” value [3] was “drastically reduced”. The duration of action [3] was “drastically reduced”, the AP [4] was 114.8 U/I and the Amylase [4] was 1306.5 U/I.
